According to patent publication US8962845B2, “Pyrazole compounds” (National Health Research Institutes, priority 2011, dated 2015):

Tests used:
[1] = system: male C57BL/6 mice; test: Tetrad response test (body temperature, tail-flick after CP55,940); format: in vivo; details: CP55,940 1 mg/kg i.p.
Method: Body temperature and tail-flick responses were measured by rectal thermometer (Natsume, Japan) and tail-flick analgesia meter RS232 (Columbus, USA), respectively, in male C57BL/6 mice. One hour after oral administration of a test compound dissolved in DMSO/Tween 80/H2O (1/1/8 by volume), 1 mg/kg of CP55,940 in saline containing 0.5% DMSO was injected intraperitoneally. Body temperature was measured at a time point of 30 and 65 min, and tail flick response was measured at a time point of 35 min after the injection.

[2] = system: diet-induced obese mice; test: Treatment of diet-induced obese mice; format: in vivo, C57BL/6 mice; details: 21 days
Method: Six-week-old C57BL/6 mice were given high-fat diet (Research Diet D 12451; 45% fat, 20% protein, and 35% carbohydrate) for more than 12 weeks before treated with a test compound. Mice weight matched were assigned to different groups and orally gavaged once daily with a vehicle (10% DMSO/10% Tween 80/80% H2O) or a test compound at a defined dosage (e.g., 10 and 20 mg/kg) for at least two weeks. The sum of food taken for each treatment and the body weight were measured daily.

[3] = system: estrogen deficiency-induced osteoporosis mice; test: Treatment of estrogen deficiency-induced osteoporosis mice; format: in vivo; details: ovariectomized mice, 5 days per week for 2, 4, and 8 weeks; for trabecular bone microstructure: μCT
Method: Three-month-old female mice were subjected to bilateral ovariectomy or sham operation. Two weeks postoperatively, a CB1 antagonist (i.e., compounds 10, 63, and 119) or vehicle was administered 5 days per week for 2, 4, and 8 weeks. Bone mineral density and bone mineral contents in femurs, tibiae, and L1-L5 spine were measured by dual energy x-ray absorptiometry. Trabecular bone microstructure (i.e., trabecular bone volume, thickness, number, separation, porosity, and bone volume index) in femurs, tibiae and spine were analyzed by μCT scanning Mechanical strength of the bones was detected by a material test machine.

[4] = system: osteoarthritic rats; test: ACLT-induced knee osteoarthritis; format: in vivo, Sprague-Dawley rats; details: 8 weeks
Method: Four-month-old male Sprague-Dawley rats were anesthetized using intramuscular atropine (1 mg/kg) and intraperitoneal pentobarbital. The left knees of rats underwent medial parapatellar arthrotomy and transection of the anterior cruciate ligament (ACLT) to induce knee osteoarthritis. The osteoarthritic rats were given a CB1 antagonist (i.e., compounds 10, 63, and 119) or vehicle for 8 weeks. Knee joint radiography was evaluated by a mammography system. Gait profiles of joints in osteoarthritic rats were analyzed by a CatWalk system. Joint morphology was histologically evaluated by a Mankin scoring system.

[5] = system: diabetic rats; test: Streptozotocin-induced diabetic nephropathy and kidney fibrosis; format: in vivo, Wistar rats; details: 4 weeks; for kidney fibrosis: periodic acid-Schiff staining
Method: Three-month-old male Wistar rats were given intraperitoneal streptozotocin (50 mg/kg) to induce diabetes. Two weeks later, diabetic rats that had fasting blood glucose levels of […] were selected for studies. Caged in a metabolic cage system, the diabetic rats were administered a CB1 antagonist (i.e., compounds 10, 63, and 119) for 4 weeks while their urine was collected. To evaluate renal function, protein and creatinine levels in urine were measured by ELISA. To evaluate renal fibrosis, kidneys were dissected, fixed, paraffin wax embedded, and sectioned for histologic assessment after periodic acid-Schiff staining.

| Compound | reversal of CB1 agonist-induced analgesic response ([1]; dose as low as 2 mg/kg) | reversal of CB1 agonist-induced hypothermia ([1]; dose as low as 2 mg/kg) | relative weight-loss rate ([2]; rimonabant comparison, dose not given) [%] | reversal of CB1 agonist-induced analgesic response ([1]; oral dose up to 100 mg/kg) | reversal of CB1 agonist-induced hypothermia ([1]; oral dose up to 100 mg/kg) | bone mineral density [3] | trabecular bone microstructure [3] | Mankin score [4] | urine albumin level [5] | kidney fibrosis [5] | relative weight-loss rate ([2]; 10 mg/kg group, oral once daily) [%] | relative weight-loss rate ([2]; 20 mg/kg group, oral once daily) [%] |
| --- | --- | --- | --- | --- | --- | --- | --- | --- | --- | --- | --- | --- |
| Cc1c(C(=O)NN2CCCCC2)nn(-c2ccc(Cl)cc2Cl)c1-c1ccc(Cl)cc1 [rimonabant, reference compound] | significantly reversed | significantly reversed | 29.1 |  |  |  |  |  |  |  |  |  |
| O=C(NN1CCCCC1)c1nn(-c2ccc(Cl)cc2Cl)c(-c2ccc(Cl)cc2)c1CNS(=O)(=O)N1CCCC1 [Compound 119, 5-(4-Chlorophenyl)-1-(2,4-dichlorophenyl)-N-(piperidin-1-yl)-4-((pyrrolidine-1-sulfonamido)methyl)-1H-pyrazole-3-carboxamide] |  |  |  | did not reverse or slightly reversed | did not reverse or slightly reversed | increase | improvement | reduction | decrease | reduction |  |  |
| CCCC#Cc1ccc(-c2c(CNS(=O)(=O)N3CCCCC3)c(C(=O)NN3CCCCC3)nn2-c2ccc(Cl)cc2Cl)s1 [Compound 63, 1-(2,4-Dichlorophenyl)-5-(5-(pent-1-ynyl)thiophen-2-yl)-N-(piperidin-1-yl)-4-((piperidine-1-sulfonamido)methyl)-1H-pyrazole-3-carboxamide] |  |  |  | did not reverse or slightly reversed | did not reverse or slightly reversed | increase | improvement | reduction | decrease | reduction |  |  |
| O=C(NN1CCCCC1)c1nn(-c2ccc(Cl)cc2Cl)c(-c2ccc(C#Cc3ccc(C(F)(F)F)cc3)s2)c1CNS(=O)(=O)N1CCCC1 [Compound 10, 1-(2,4-Dichlorophenyl)-N-(piperidin-1-yl)-4-((pyrrolidine-1-sulfonamido)methyl)-5-(5-((4-(trifluoromethyl)phenyl)ethynyl)thiophen-2-yl)-1H-pyrazole-3-carboxamide] |  |  |  | did not reverse or slightly reversed | did not reverse or slightly reversed | increase | improvement | reduction | decrease | reduction | 26.4 | 32.8 |
